doi:10.1101/252742v1 (bioRxiv, 2018)

Key:
p38MAPK = p38MAPK activation; type: cell-based, human; details: NOKs, 30 μM peptide, 15 min to 16 hr
UM-SCC47 cells [1] = test: Cell cycle analysis by flow cytometry; type: cell-based, human; details: UM-SCC47, 30 uM peptide
c-Abl = c-Abl activity; type: cell-based, human; details: UM-SCC47, 30 μM peptide for 3 hr
UM-SCC47 cells [2] = type: cell-based, human; details: UM-SCC47, 30 μM peptide for 3 hr, EdU for the last 45 min
[3] = Stability of peptide incubated in human plasma; type: in vitro ADME; details: incubated in PBS or human plasma for up to 72h at 37°C, then tested for activity
PCNA = test: DNA-bound PCNA staining on chromatin; type: cell-based, human; details: UM-SCC47, detergent-extracted after 3 hr treatment with 30 μM peptide
Chk1, Chk2, H2AX = test: DNA damage response effector activation by western blot; type: cell-based, human; details: UM-SCC47 or MDA-MB-231 cells, 30 μM peptide up to 6 hr
NOKs and MCF10A cells = test: DNA synthesis by EdU incorporation, non-tumorigenic cells; type: cell-based, human; details: 30 μM peptide for 1, 3 or 6 hr (up to 16 hr), then EdU 45 min
HaCaT keratinocytes = test: Cell cycle analysis by flow cytometry; type: cell-based, human; details: 30 uM peptide, 16 hr
[4] = Plasma pharmacokinetics in mice; type: in vivo; details: single intravenous (i.v.) injection of 0.597 mg/kg
[5] = system: normal oral keratinocytes (NOKs), human tonsillar epithelial cells (HTEs), HaCaT keratinocytes and MCF10A cells; test: Cell proliferation assay; type: cell-based; details: 0, 3, 10 or 30 μM peptide, four-day treatment; cell number as % of untreated

For SSTNEGFR, the “p38MAPK activation in non-transformed cells” value (p38MAPK) was “fail to activate p38MAPK”, the “cells in G1” value (UM-SCC47 cells [1]; 3 hr) was 53.1% and the “cells in G2” value (UM-SCC47 cells [1]; 3 hr) was 0.0%. The “cells in S” value (UM-SCC47 cells [1]; 3 hr) was 46.9%, the “cells in G1” value (UM-SCC47 cells [1]; 16 hr) was 48.5% and the “cells in G2” value (UM-SCC47 cells [1]; 16 hr) was 1.7%. The “cells in S” value (UM-SCC47 cells [1]; 16 hr) was 49.8%, the “c-Abl activity (pY245, pY412)” value (c-Abl) was “inactivates c-Abl” and the EdU incorporation (UM-SCC47 cells [2]) was “near complete loss of EdU incorporation”. For the same sequence, the “stability in human plasma” value [3] was “remarkably stable”, the “PCNA retention on chromatin” value (PCNA) was “loss of PCNA” and the “activation of DNA damage response effectors (Chk1, Chk2, γH2AX)” value (Chk1, Chk2, H2AX) was “fails to activate Chk1 or Chk2”. For the same sequence, the “DNA synthesis (EdU incorporation)” value (NOKs and MCF10A cells) was “no inhibition of DNA synthesis”, the “cells in G1” value (HaCaT keratinocytes) was 36.6% and the “cells in S” value (HaCaT keratinocytes) was 57.0%. For the same sequence, the half-life in plasma [4] was ~ 42 hr and the “growth of non-tumorigenic cells” value [5] was “not affected”.
